PMC3248963 (Bioorganic & medicinal chemistry letters, 2011)
Where no end group is shown, it is not given here.

Assays:
[1] = target: human GLP1 receptor (CHO-GLP1R cells) (Homo sapiens, UniProt P43220); assay: intracellular cAMP response assay, wild type receptor; assay type: cell-based; conditions: EC50 values
[2] = target: GLP1 receptor (CHO-GLP1R cell membranes) (Homo sapiens, UniProt P43220); assay: photoaffinity labeling of wild type receptor by radioiodinated Bpa-NRTFD
M397L GLP1 receptor = M397L GLP1 receptor (Homo sapiens, UniProt P43220, M397L); assay: intracellular cAMP response assay, M397L mutant receptor; assay type: cell-based
[3] = tested on: dipeptidyl peptidase 4 (DPP4); conditions: cited from earlier work
GLP1 receptor = conditions: cited from earlier work

Sequence of human GLP1 receptor (CHO-GLP1R cells) (P43220 24-463): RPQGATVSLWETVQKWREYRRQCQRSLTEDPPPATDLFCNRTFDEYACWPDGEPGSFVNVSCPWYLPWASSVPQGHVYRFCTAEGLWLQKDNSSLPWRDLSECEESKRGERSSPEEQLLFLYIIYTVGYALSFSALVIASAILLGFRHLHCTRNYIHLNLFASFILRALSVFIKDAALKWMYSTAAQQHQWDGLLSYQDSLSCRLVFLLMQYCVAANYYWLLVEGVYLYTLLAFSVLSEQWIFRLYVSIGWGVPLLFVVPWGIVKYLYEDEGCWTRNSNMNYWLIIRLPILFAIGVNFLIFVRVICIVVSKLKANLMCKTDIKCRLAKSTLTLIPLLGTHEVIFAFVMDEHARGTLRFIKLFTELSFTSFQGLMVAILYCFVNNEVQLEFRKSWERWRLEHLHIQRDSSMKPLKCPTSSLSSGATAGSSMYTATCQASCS
Sequence of GLP1 receptor (CHO-GLP1R cell membranes) (P43220 24-463): as above
Sequence of M397L GLP1 receptor (P43220 24-463 M397L): as the sequence (P43220 24-463) above, with M374L counted along it

| Compound | EC50 [1] [µM] | IC50 [2] [µM] | EC50 (M397L GLP1 receptor) [µM] | degradation by DPP4 [3] | blockade of agonist action by high affinity peptide antagonist (GLP1 receptor) |
| --- | --- | --- | --- | --- | --- |
| NRTFD [NRTFD] | 1.6 ± 0.5 | 3.1 ± 0.8 | 2.2 ± 0.8 | – | – |
| CC[C@H](C)[C@H](NC(=O)[C@H](Cc1ccccc1)NC(=O)[C@H](CCC(=O)O)NC(=O)[C@H](CCCCN)NC(=O)[C@H](C)NC(=O)[C@H](C)NC(=O)[C@H](CCC(N)=O)NC(=O)CNC(=O)[C@H](CCC(=O)O)NC(=O)[C@H](CC(C)C)NC(=O)[C@H](Cc1ccc(O)cc1)NC(=O)[C@H](CO)NC(=O)[C@H](CO)NC(=O)[C@@H](NC(=O)[C@H](CC(=O)O)NC(=O)[C@H](CO)NC(=O)[C@@H](NC(=O)[C@H](Cc1ccccc1)NC(=O)[C@@H](NC(=O)CNC(=O)[C@H](CCC(=O)O)NC(=O)[C@H](C)NC(=O)[C@@H](N)Cc1c[nH]cn1)[C@@H](C)O)[C@@H](C)O)C(C)C)C(=O)N[C@@H](C)C(=O)N[C@@H](Cc1c[nH]c2ccccc12)C(=O)N[C@@H](CC(C)C)C(=O)N[C@H](C(=O)N[C@@H](CCCCN)C(=O)NCC(=O)N[C@@H](CCCNC(=N)N)C(N)=O)C(C)C [GLP1] | – | – | – | rapidly degraded | competitively blocked |
